Laboratory results from paper PMC11014391 (2024).
One block for each compound: values may come before it.

How the values were obtained:
[1] = test system: SAM-I^AD (yitJ SAM-I aptamer domain) (RNA, riboswitch) GGGCGUUCUUAUCAAGAGAAGCAGAGGGACUGGCCCGACGAAGCUUCAGCAACCGGUGUAAUGGCGAUCAGCCAUGACCAAGGUGCUAAAUCCAGCAAGCUCGAACAGCUUGGAAGAUAAGAAGCCCCCAAAAAAAAAAAAAAAAAAAAAAAA; assay: ITC; settings: 150 mM NaCl, 2 mM MgCl2; 10 mM HEPES pH 7.4, 25 °C; 10 μM RNA
[2] = test system: SAM-I^1-156 (RNA, riboswitch) GGGAUAUCCGUUCUUAUCAAGAGAAGCAGAGGGACUGGCCCGACGAAGCUUCAGCAACCGGUGUAAUGGCGAUCAGCCAUGACCAAGGUGCUAAAUCCAGCAAGCUCGAACAGCUUGGAAGAUAAGAAGAGACAAAAUCACUGACAAAGUCUUCUUCUUCCCCCAAAAAAAAAAAAAAAAAAAAAAAA; assay: SPR kinetics; settings: 150 mM NaCl, MgCl2; HBS-N, 10 mM HEPES pH 7.4; apparent
[3] = test system: SAM-I^AD (yitJ SAM-I aptamer domain) (RNA, riboswitch) GGGCGUUCUUAUCAAGAGAAGCAGAGGGACUGGCCCGACGAAGCUUCAGCAACCGGUGUAAUGGCGAUCAGCCAUGACCAAGGUGCUAAAUCCAGCAAGCUCGAACAGCUUGGAAGAUAAGAAGCCCCCAAAAAAAAAAAAAAAAAAAAAAAA; assay: SPR kinetics; settings: 150 mM NaCl, MgCl2; HBS-N, 10 mM HEPES pH 7.4; apparent
[4] = test system: SAM-I^1-156 (RNA, riboswitch) GGGAUAUCCGUUCUUAUCAAGAGAAGCAGAGGGACUGGCCCGACGAAGCUUCAGCAACCGGUGUAAUGGCGAUCAGCCAUGACCAAGGUGCUAAAUCCAGCAAGCUCGAACAGCUUGGAAGAUAAGAAGAGACAAAAUCACUGACAAAGUCUUCUUCUUCCCCCAAAAAAAAAAAAAAAAAAAAAAAA; assay: native PAGE switching, no probe; settings: MgCl2; THEM buffer pH 7.5; 0.5 μM RNA; top band; bottom band 23 ± 9 μM
[5] = test system: SAM-I^1-156 (RNA, riboswitch) GGGAUAUCCGUUCUUAUCAAGAGAAGCAGAGGGACUGGCCCGACGAAGCUUCAGCAACCGGUGUAAUGGCGAUCAGCCAUGACCAAGGUGCUAAAUCCAGCAAGCUCGAACAGCUUGGAAGAUAAGAAGAGACAAAAUCACUGACAAAGUCUUCUUCUUCCCCCAAAAAAAAAAAAAAAAAAAAAAAA; assay: native PAGE switching with APO-FAM-SAM probe; settings: MgCl2; THEM buffer pH 7.5; APO-FAM-SAM DNA probe displaced
[6] = test system: SAM-I^1-156 (RNA, riboswitch) GGGAUAUCCGUUCUUAUCAAGAGAAGCAGAGGGACUGGCCCGACGAAGCUUCAGCAACCGGUGUAAUGGCGAUCAGCCAUGACCAAGGUGCUAAAUCCAGCAAGCUCGAACAGCUUGGAAGAUAAGAAGAGACAAAAUCACUGACAAAGUCUUCUUCUUCCCCCAAAAAAAAAAAAAAAAAAAAAAAA; assay: native PAGE switching with HOLO-FAM-SAM probe; settings: MgCl2; THEM buffer pH 7.5; HOLO-FAM-SAM DNA probe hybridizes
[7] = test system: SAM-I^1-156 (RNA, riboswitch) GGGAUAUCCGUUCUUAUCAAGAGAAGCAGAGGGACUGGCCCGACGAAGCUUCAGCAACCGGUGUAAUGGCGAUCAGCCAUGACCAAGGUGCUAAAUCCAGCAAGCUCGAACAGCUUGGAAGAUAAGAAGAGACAAAAUCACUGACAAAGUCUUCUUCUUCCCCCAAAAAAAAAAAAAAAAAAAAAAAA; assay: fluorescence anisotropy switching (FASST), APO probe; settings: 150 mM NaCl, 2 mM MgCl2; 10 mM HEPES pH 7.4, 37 °C; 75 nM RNA; 50 nM APO-FAM-SAM DNA probe displaced
[8] = test system: SAM-I riboswitch without spacer and poly(A) tail (RNA, riboswitch) GGGAUAUCCGUUCUUAUCAAGAGAAGCAGAGGGACUGGCCCGACGAAGCUUCAGCAACCGGUGUAAUGGCGAUCAGCCAUGACCAAGGUGCUAAAUCCAGCAAGCUCGAACAGCUUGGAAGAUAAGAAGAGACAAAAUCACUGACAAAGUCUUCUUCUU; assay: as above; settings: 150 mM NaCl, 2 mM MgCl2; 10 mM HEPES pH 7.4; APO-FAM-SAM DNA probe displaced
[9] = test system: SAM-I^1-156 (RNA, riboswitch) GGGAUAUCCGUUCUUAUCAAGAGAAGCAGAGGGACUGGCCCGACGAAGCUUCAGCAACCGGUGUAAUGGCGAUCAGCCAUGACCAAGGUGCUAAAUCCAGCAAGCUCGAACAGCUUGGAAGAUAAGAAGAGACAAAAUCACUGACAAAGUCUUCUUCUUCCCCCAAAAAAAAAAAAAAAAAAAAAAAA; assay: fluorescence anisotropy switching (FASST), HOLO probe; settings: 150 mM NaCl, 2 mM MgCl2; 10 mM HEPES pH 7.4, 37 °C; 350 nM RNA; 50 nM HOLO-FAM-SAM DNA probe hybridizes
[10] = test system: SAM-I riboswitch without spacer and poly(A) tail (RNA, riboswitch) GGGAUAUCCGUUCUUAUCAAGAGAAGCAGAGGGACUGGCCCGACGAAGCUUCAGCAACCGGUGUAAUGGCGAUCAGCCAUGACCAAGGUGCUAAAUCCAGCAAGCUCGAACAGCUUGGAAGAUAAGAAGAGACAAAAUCACUGACAAAGUCUUCUUCUU; assay: as above; settings: 150 mM NaCl, 2 mM MgCl2; 10 mM HEPES pH 7.4; HOLO-FAM-SAM DNA probe hybridizes
[11] = test system: FMN^1-212 (RNA, riboswitch) GGGAAAAAUAAAUAUUAAAAAUAAUCUUCGGGGCAGGGUGAAAUUCCCGACCGGUGGUAUAGUCCACGAAAGUAUUUGCUUUGAUUUGGUGAAAUUCCAAAACCGACAGUAGAGUCUGGAUGAGAGAAGAAAAGAAAUUUAAGUUUUUUAACUUGUUUUCUACAUUUUAGUAAUCUUACCCGAAUUCUAUAAUUCGGUUUUUUUAUUUUAACUGGCCCCCAAAAAAAAAAAAAAAAAAAAAAAA; assay: SPR steady state; settings: 150 mM NaCl, 5 mM MgCl2; HBS-N, 10 mM HEPES pH 7.4; apparent
[12] = test system: FMN^AD (FMN aptamer domain) (RNA, riboswitch) GGGAUCUUCGGGGCAGGGUGAAAUUCCCGACCGGUGGUAUAGUCCACGAAAGUAUUUGCUUUGAUUUGGUGAAAUUCCAAAACCGACAGUAGAGUCUGGAUGAGAGAAGACCCCCAAAAAAAAAAAAAAAAAAAAAAAA; assay: SPR steady state; settings: 150 mM NaCl, MgCl2; HBS-N, 10 mM HEPES pH 7.4
[13] = test system: FMN^1-212 (RNA, riboswitch) GGGAAAAAUAAAUAUUAAAAAUAAUCUUCGGGGCAGGGUGAAAUUCCCGACCGGUGGUAUAGUCCACGAAAGUAUUUGCUUUGAUUUGGUGAAAUUCCAAAACCGACAGUAGAGUCUGGAUGAGAGAAGAAAAGAAAUUUAAGUUUUUUAACUUGUUUUCUACAUUUUAGUAAUCUUACCCGAAUUCUAUAAUUCGGUUUUUUUAUUUUAACUGGCCCCCAAAAAAAAAAAAAAAAAAAAAAAA; assay: fluorescence anisotropy switching (FASST), APO probe; settings: 150 mM NaCl, 5 mM MgCl2, 350 nM RNA, 5 nM APO-FAM-FMN DNA probe displaced
[14] = test system: FMN^1-212 (RNA, riboswitch) GGGAAAAAUAAAUAUUAAAAAUAAUCUUCGGGGCAGGGUGAAAUUCCCGACCGGUGGUAUAGUCCACGAAAGUAUUUGCUUUGAUUUGGUGAAAUUCCAAAACCGACAGUAGAGUCUGGAUGAGAGAAGAAAAGAAAUUUAAGUUUUUUAACUUGUUUUCUACAUUUUAGUAAUCUUACCCGAAUUCUAUAAUUCGGUUUUUUUAUUUUAACUGGCCCCCAAAAAAAAAAAAAAAAAAAAAAAA; assay: SPR; settings: 150 mM NaCl, 5 mM MgCl2; HBS-N, 10 mM HEPES pH 7.4; apparent; Table 2 prints 150 ± 180 nM
[15] = test system: FMN^AD (FMN aptamer domain) (RNA, riboswitch) GGGAUCUUCGGGGCAGGGUGAAAUUCCCGACCGGUGGUAUAGUCCACGAAAGUAUUUGCUUUGAUUUGGUGAAAUUCCAAAACCGACAGUAGAGUCUGGAUGAGAGAAGACCCCCAAAAAAAAAAAAAAAAAAAAAAAA; assay: SPR kinetics; settings: 150 mM NaCl, MgCl2; HBS-N, 10 mM HEPES pH 7.4; apparent
[16] = test system: SAM-I^1-156 (RNA, riboswitch) GGGAUAUCCGUUCUUAUCAAGAGAAGCAGAGGGACUGGCCCGACGAAGCUUCAGCAACCGGUGUAAUGGCGAUCAGCCAUGACCAAGGUGCUAAAUCCAGCAAGCUCGAACAGCUUGGAAGAUAAGAAGAGACAAAAUCACUGACAAAGUCUUCUUCUUCCCCCAAAAAAAAAAAAAAAAAAAAAAAA; assay: SPR steady state; settings: 150 mM NaCl, 2 mM MgCl2, HBS-N, 10 mM HEPES pH 7.4, apparent, no switching seen by FASST
[17] = test system: SAM-I^AD (yitJ SAM-I aptamer domain) (RNA, riboswitch) GGGCGUUCUUAUCAAGAGAAGCAGAGGGACUGGCCCGACGAAGCUUCAGCAACCGGUGUAAUGGCGAUCAGCCAUGACCAAGGUGCUAAAUCCAGCAAGCUCGAACAGCUUGGAAGAUAAGAAGCCCCCAAAAAAAAAAAAAAAAAAAAAAAA; assay: SPR steady state; settings: 150 mM NaCl, MgCl2; HBS-N, 10 mM HEPES pH 7.4

KD [1]: 0.128 ± 0.027 µM | KD [2]: 0.0101 ± 0.0004 µM | KD [3]: 0.004 ± 0.002 µM | S50 NP [4]: 6 ± 2 µM | S50 NP [5]: 46 ± 44 µM | S50 NP [6]: 1.03 ± 0.08 µM | S50FASST [7]: 19 ± 12 µM | S50FASST [8]: 8 ± 3 µM | S50FASST [9]: 1.7 ± 0.4 µM | S50FASST [10]: 0.19 ± 0.08 µM
SMILES: C[S+](CC[C@H](N)C(=O)O)C[C@H]1O[C@@H](n2cnc3c(N)ncnc32)[C@H](O)[C@@H]1O (some centres unmarked)

KD [11]: 32 ± 11 µM | KD [12]: 30 ± 18 µM | S50FASST ([13]; 10 mM HEPES pH 7.4, overnight): 0.7 ± 0.3 µM
SMILES: Cc1cc2nc3c(=O)[nH]c(=O)nc-3n(C[C@H](O)[C@H](O)[C@H](O)CO)c2cc1C

KD [11]: 4.9 ± 0.2 µM | KD [12]: 2 ± 1 µM | S50FASST ([13]; 10 mM HEPES pH 7.4, overnight): 24 ± 20 µM
SMILES: Cc1cc2nc3c(=O)[nH]c(=O)nc-3n(C[C@H](O)[C@H](O)[C@H](O)CO)c2cc1N(C)C

KD [14]: 0.095 ± 0.05 µM | KD [15]: 0.16 ± 0.012 µM | S50FASST ([13]; 10 mM HEPES pH 7.4, 37 °C): 0.29 ± 0.06 µM
SMILES: Cc1cc2nc3c(=O)[nH]c(=O)nc-3n(C[C@H](O)[C@H](O)[C@H](O)COP(=O)(O)O)c2cc1C

KD [16]: 46 ± 27 µM | KD [17]: 195 ± 22 µM
SMILES: Nc1ncnc2c1ncn2[C@@H]1O[C@H](CSCC[C@H](N)C(=O)O)[C@@H](O)[C@H]1O

KD ([16]; error exceeds value): 2000 ± 3000 µM | KD [17]: 129 ± 14 µM
SMILES: Nc1ncnc2c1ncn2[C@@H]1O[C@H](C[C@@H](N)CC[C@H](N)C(=O)O)[C@@H](O)[C@H]1O
